{"source": "patent US5202331A", "about": "“Therapeutic agent for dysuria comprising alpha-phenyl-alpha-pyridylalkanoic acid derivatives” (Fujisawa Pharmaceutical Co., Ltd., priority 1990, dated 1993)", "key": {"Acute toxicity test": {"assay": "Acute toxicity test", "parameters": "species or system rats (Crj:CD(SD) strain)", "conditions": "rat, in vivo, 14 days observation, probit method", "protocol": "Five rats (Crj:CD(SD) strain) of either sex were used per group. Solutions of the test compound were prepared as shown below and administered to rats intravenously or subcutaneously. The rats were then observed for 14 days. The LD50 values were calculated by the probit method. (Preparation of test solutions)\nThe test compound was dissolved in hydrochloric acid and the solution was adjusted to pH 6-7 with sodium hydrogen carbonate and diluted with physiological saline to the required concentrations."}, "[1]": {"tested_on": "urinary bladder contraction (hyperactive bladder, detrusor hyperreflexia)", "assay": "Inhibition of urinary bladder contraction in the pressure-loaded hyperactive bladder model in rats", "format": "in vivo", "conditions": "Rattus norvegicus, intravenous, urethane-anesthetized male S.D. rats, hydrostatic pressure about 10 mmHg", "protocol": "Male S.D. rats weighing 240-450 g were anesthetized with urethane (1.0 g/kg) s.c.. The urinary bladder was then exposed through a midline incision in the abdomen and the intravesical pressure was recorded. Thus, a balloon attached to one end of a stainless steel tube (1.2 mm in outer diameter, 5 cm in length) was inserted into the bladder through a small incision made in the bladder dome, while the other end of the tube was connected to a pressure transducer. The ureter was ligated and cut and a polyethylene cannula was inserted from the proximal cut end to drain off the urine.\nHyperactive bladder (detrusor hyperreflexia) was induced by water filling of the bladder. A hydrostatic pressure of about 10 mmHg was applied to the balloon in the bladder.\nWhen the contractile response of the bladder to water pressure loading became steady, the test compound was administered intravenously."}, "[2]": {"tested_on": "voiding reflex bladder contraction", "assay": "Effect on voiding reflex bladder contraction in rats with the ureter ligated", "format": "in vivo", "conditions": "Rattus norvegicus, iv, voiding reflex rhythmic bladder contraction, into the jugular vein, urethane-anesthetized male S.D rats", "from_the_text": "A midline incision was made in the abdomen of male S.D rats (body weight 250-350 g) under urethane (1.0 g/kg i.p.) anesthesia. A small incision was made in the bladder dome and one end of a polyethylene tube was inserted and, then, ligated. To the other end of the polyethylene tube was attached a three-way cock. An infusion pump was connected to one of the joints and a transducer was connected to another joint for measurement of the intravesical pressure. Physiological saline was then infused continuously into the bladder. After confirmation of steady voiding reflexes, the ureter was ligated immediately before the next voiding and the infusion of physiological saline was stopped. After the resulting rhythmic contractions became stable, the test compound was administered into the jugular vein to evaluate its effect."}, "[3]": {"tested_on": "isolated guinea pig bladder detrusor muscle", "assay": "Anticholinergic effect in the isolated guinea pig bladder (carbamylcholine-induced contraction)", "parameters": "species or system male guinea pigs", "conditions": "Cavia porcellus, contractions induced with 10 μM carbamylcholine, Krebs solution", "protocol": "Male guinea pigs weighing 400-700 g were fainted and killed by a blow on the occipital region. A bladder detrusor muscle specimen (15-20 mm long × 5 mm thick) was prepared by longitudinal section and suspended in a Magnus bath containing Krebs solution which was aerated with 95% O2 -5% CO2. Isotonic contractions were recorded through a tension transducer. The buffer solution was changed five times at 15-minute intervals. The equilibration time was […]. Contractions were induced with 10 μM carbamylcholine, and after the contractions became steady, the test compound was added to the Magnus bath and its anticholinergic effect was investigated."}}}
{"smiles": "C[C@H](C[C@@](C(N)=O)(c1ccccc1)c1ccccn1)N(C)C", "note": "(relative stereo) [test compound, (±)-(2R*,4R*)-4-Dimethylamino-2-phenyl-2-(2-pyridyl)-valeramide]", "values": [{"measurement": "LD50 at 336 h", "setting": "Acute toxicity test; iv, Female", "result": 42.3, "unit": "mg/kg"}, {"measurement": "LD50 at 336 h", "setting": "Acute toxicity test; iv, Male", "result": 47.2, "unit": "mg/kg"}, {"measurement": "LD50 at 336 h", "setting": "Acute toxicity test; sc, Female", "result": 915, "unit": "mg/kg"}, {"measurement": "LD50 at 336 h", "setting": "Acute toxicity test; sc, Male", "result": 922, "unit": "mg/kg"}, {"measurement": "ED30", "setting": "[1]", "result": 0.09, "unit": "mg/kg"}, {"measurement": "ED50", "setting": "[2]", "result": 0.56, "unit": "mg/kg"}, {"measurement": "IC50", "setting": "[3]", "result": 0.6, "unit": "µg/mL"}]}
